# Calls of active or inactive are those of the source. The calls are words filed in the database; no cut-off is given here.
# Key:
# Assay type in all cases: cell-based
# [1] = biological target: T1, Polyunsaturated fatty acid 5-lipoxygenase (Homo sapiens, UniProt P09917); test: Inhibition of human 5LOX expressed in HEK293 cells
# T1 sequence (P09917 whole entry): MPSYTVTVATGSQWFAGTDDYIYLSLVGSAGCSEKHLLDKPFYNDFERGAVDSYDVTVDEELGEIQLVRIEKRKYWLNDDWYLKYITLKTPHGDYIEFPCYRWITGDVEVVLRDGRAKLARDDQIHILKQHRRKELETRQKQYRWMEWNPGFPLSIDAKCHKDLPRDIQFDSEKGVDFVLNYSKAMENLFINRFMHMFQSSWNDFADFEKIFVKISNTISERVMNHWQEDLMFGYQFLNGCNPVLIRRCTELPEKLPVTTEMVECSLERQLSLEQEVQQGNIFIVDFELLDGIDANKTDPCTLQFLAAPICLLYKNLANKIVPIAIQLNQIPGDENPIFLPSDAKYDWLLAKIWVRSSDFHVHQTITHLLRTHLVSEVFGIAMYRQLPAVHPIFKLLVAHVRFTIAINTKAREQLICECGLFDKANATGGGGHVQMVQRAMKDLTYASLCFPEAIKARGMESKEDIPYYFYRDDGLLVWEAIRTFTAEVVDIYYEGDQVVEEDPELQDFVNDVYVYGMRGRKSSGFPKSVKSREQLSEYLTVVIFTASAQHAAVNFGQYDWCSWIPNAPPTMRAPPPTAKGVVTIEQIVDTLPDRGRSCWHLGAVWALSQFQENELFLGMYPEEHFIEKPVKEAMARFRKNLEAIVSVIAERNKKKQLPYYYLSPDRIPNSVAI
# [2] = biological target: T2, Polyunsaturated fatty acid 5-lipoxygenase (Homo sapiens) (UniProt P09917); test: Ratio of IC50 of caffeic acid to IC50 of compound for human 5LOX expressed in HEK293 cells
# T2 sequence (whole entry): T1 sequence (P09917 whole entry)
# [3] = biological target: T2, Polyunsaturated fatty acid 5-lipoxygenase (Homo sapiens); test: Inhibition of human 5LOX expressed in HEK293 cells at 1 uM
SMILES,IC50 [1] [nM],Ratio IC50 [2],inhibition [3] [%],Activity [3]
O=C(/C=C/c1ccc(O)c(O)c1)OCc1cn(CC(Cn2cc(COC(=O)/C=C/c3ccc(O)c(O)c3)nn2)(Cn2cc(COC(=O)/C=C/c3ccc(O)c(O)c3)nn2)Cn2cc(COC(=O)/C=C/c3ccc(O)c(O)c3)nn2)nn1,660,10.1,92,–
O=C(/C=C/c1ccc(O)c(O)c1)OCc1cn(CC(COCC(Cn2cc(COC(=O)/C=C/c3ccc(O)c(O)c3)nn2)(Cn2cc(COC(=O)/C=C/c3ccc(O)c(O)c3)nn2)Cn2cc(COC(=O)/C=C/c3ccc(O)c(O)c3)nn2)(Cn2cc(COC(=O)/C=C/c3ccc(O)c(O)c3)nn2)Cn2cc(COC(=O)/C=C/c3ccc(O)c(O)c3)nn2)nn1,–,–,–,Active
O=C(/C=C/c1ccc(O)c(O)c1)OCCn1cc(COCC(COCc2cn(CCOC(=O)/C=C/c3ccc(O)c(O)c3)nn2)(COCc2cn(CCOC(=O)/C=C/c3ccc(O)c(O)c3)nn2)COCc2cn(CCOC(=O)/C=C/c3ccc(O)c(O)c3)nn2)nn1,–,–,–,Active
O=C(/C=C/c1ccc(O)c(O)c1)OCc1cn(CC(CO)(Cn2cc(COC(=O)/C=C/c3ccc(O)c(O)c3)nn2)Cn2cc(COC(=O)/C=C/c3ccc(O)c(O)c3)nn2)nn1,790,10.5,91,–
O=C(/C=C/c1ccc(O)c(O)c1)OCCn1cc(COC(=O)/C=C/c2ccc(O)c(O)c2)nn1,740,16.8,–,Active
O=C(/C=C/c1ccccc1)OCCn1cc(COC(=O)/C=C/c2ccc(O)c(O)c2)nn1,–,–,–,Active
O=C(/C=C/c1ccc(O)c(O)c1)OCCn1cc(COC(=O)/C=C/c2ccccc2)nn1,680,36.7,–,Active
